Laboratory results published in patent US20230416307A1, “[…] PEPTIDES FOR ENHANCING VIRAL PRODUCTION” (Synvivia, Inc., priority 2022, published 2023).

Columns and labels:
AAV2 [1] = assay: Biological titer of AAVs packaged in cells expressing a CP (GFP-positive transduced HEK293 cells); format: cell-based, adeno-associated virus; details: FIG. 20B; HEK293 transduction; cells expressing individual CP relative to no CP expression
Protocol: (§1) FIG. 20. Exemplary bar charts showing fold improvement of physical titer and/or biological titer for various CPs. […] The payload being packaged during AAV production is GFP only. The cyclic peptide generator is located on a separate DNA, is only expressed by the host cell, and is not able to be packaged. Physical titer is quantified by qPCR or ddPCR and expressed as viral genomes produced per mL (VG/ml) of AAV packaging cells and media. […] Biological titer is measured in vitro by transducing a standardized number of wild-type (WT) mammalian (HEK293) cells with diluted AAVs harvested after packaging with or without CP expression. The transductants are identified by GFP payload expression. The fold improvement is calculated by dividing the percentage of GFP expressing (transduced) cells after transduction with AAVs packaged in cells expressing a CP by the percentage of GFP expressing (transduced) cells after transduction with AAVs packaged in cells that are not expressing a CP.
HEK-293T were reseeded in a 24 well tissue culture treated plate at a density of 1-2*10^4 cells/well in 0.5 mL of DMEM with 10% FBS. Cells were cultured overnight. 10-fold serial dilutions of prepared AAV2 particle solutions using DMEM with 10% FBS were used to infect the HEK-293T cells. Dilutions ranged from 1:10 to 1:10000. On Day 3 after infection, cells were detached using Trypsin/EDTA and analyzed for eGFP expression by image-based cytometry.
(§2) 50-70% confluent HEK-293T cells (˜10^6 total cells) grown in DMEM supplemented with 5% FBS were quadruple transfected with pHelper Vector, pAAV-ZsGreenl Vector, AAVpro® Packaging Rep-Cap Plasmid (AAV2), and pTargeT Mammalian Expression Vector with cloned individual cyclic peptide generator of interest in a 1:1:1:1 molar ratio normalized to the plasmid size using JetOptimus Transfection Reagent in 100 mm TC treated petri dish. AAV preparation is conducted as described above. Biological viral titer measurement is performed as described above.
(§3) • 1. A 100-mm cell culture dish was reseeded with 4.0×10^6 Hek293T cells in high glucose DMEM culture medium supplemented with 10% FBS. • 2. One day after plating, the cells (70-80% confluence) were co-transfected with 3.2ug pRC2 which encodes Rep and Cap genes (SEQ ID NO: 1-7), 4.6ug pHelper which encodes Adenovirus helper genes (SEQ ID NO: 16-19, 22, 23), 2.2ug payload vector, and 1-100ng engineered cyclic peptide expression vector (if using). A jetOPTIMUS DNA transfection reagent i used during the transfection protocol (from Polyplus). • 3. 12-16 hours after transfection, media was replaced with low glucose DMEM culture medium supplemented with 1% FBS, 1×Glutamax, 10 mM HEPES, and 0.075% sodium bicarbonate. • 4. Cells and media were harvested 4 days after transfection and frozen in 1 mL aliquots. • 5. Frozen aliquots were thawed and lysed using AAVMax Lysis Reagent (Life Technologies, USA, A50520). 100 uL of AAVMax Lysis buffer was added to 900 uL of cell and media. Mixture was incubated for 2 hours with rotating. Debris was pelleted at 5,000xg for 15 minutes. AAV containing supernatant was collected. • 6. The physical and biological titers of the harvested AAV samples were determined by qPCR and biological viral titer measurement as described in Example 1.
The fold improvement in biological titer was calculated by dividing the percentage of GFP expressing (transduced) cells after transduction with AAVs packaged in cells expressing a CP by the percentage of GFP expressing (transduced) cells after transduction with AAVs packaged in cells that are not expressing a CP.

AAV2 [2] = assay: Physical titer (qPCR or ddPCR, VG/ml) of AAVs packaged in cells expressing a CP; format: cell-based, adeno-associated virus; details: FIG. 20A; GFP payload; cells expressing individual CP relative to no CP expression
Protocol: as §1
Primers binding the eGFP reporter protein were used to measure the virus titer with quantitative polymerase chain reaction (qPCR). Before releasing the viral DNA from the particles, all extra-viral DNA was removed by digestion with DNase I. Then, the viral DNA was released by alkaline lysis. The qPCR was performed using the PowerUp™ SYBR™ Green Master Mix (Applied Biosystems), and primers against the zsGreen obtained from Integrated DNA Technologies. The extracted viral DNA and a serial dilution of a viral plasmid containing z as a standard were measured using the CFX96 Touch Real-Time PCR Detection System and the CFX Maestro Software (Bio-Rad, Hercules, CA).
as §2, §3
The physical titer fold improvement was calculated by dividing the physical titer of AAVs packaged in cells expressing a CP by the physical titer of cells that are not expressing a CP.

| Substance | fold improvement in biological titer of AAVs (AAV2 [1]) | fold improvement in physical titer of AAVs (AAV2 [2]) |
| --- | --- | --- |
| CAAAS: engineered cyclic peptide, SEQ ID NO: 48 (cyclic; Cyclic peptide that was found to enhance AAV viral titer) | fold improvements in biological titer | fold improvements in physical titer |
| CADTV: engineered cyclic peptide, SEQ ID NO: 49 (cyclic; Cyclic peptide that was found to enhance AAV viral titer) | – | fold improvements in physical titer |
| CANMPY: engineered cyclic peptide, SEQ ID NO: 50 (cyclic; Cyclic peptide that was found to enhance AAV viral titer; We observed log10 enrichment score of 2.959, mean of 79 experimental replicates. We observed excellent mean log10 enrichment scores for this cyclic peptide across multiple AAV serotypes: AAV1_3.0; AAV2_3.1; AAV5_2.8; AAV6_2.7. This CP possesses the following motifs: POL_HYD_POL-motif; HYD_ARO_POL-motif; POL_HYD_HYD-motif.) | fold improvements in biological titer | – |
| CARFR: engineered cyclic peptide, SEQ ID NO: 51 (cyclic; Cyclic peptide that was found to enhance AAV viral titer) | fold improvements in biological titer | – |
| CETDV: engineered cyclic peptide, SEQ ID NO: 52 (cyclic; Cyclic peptide that was found to enhance AAV viral titer) | fold improvements in biological titer | – |
| CKDYFS: engineered cyclic peptide expressed from a generator plasmid, SEQ ID NO: 34 (cyclic; Cyclic peptide that was found to increase AAV viral titer.) | – | fold improvements in physical titer |
| CPKNP: engineered cyclic peptide, SEQ ID NO: 53 (cyclic; Cyclic peptide that was found to enhance AAV viral titer) | – | fold improvements in physical titer |
| CQSRS: engineered cyclic peptide, SEQ ID NO: 54 (cyclic; Cyclic peptide that was found to enhance AAV viral titer) | – | fold improvements in physical titer |
| CQVTRM: engineered cyclic peptide, SEQ ID NO: 55 (cyclic; Cyclic peptide that was found to enhance AAV viral titer; We observed log10 enrichment score of 3.258, mean of 74 experimental replicates. We observed excellent mean log10 enrichment scores for this cyclic peptide across multiple AAV serotypes: AAV1_3.4; AAV2_3.3; AAV5_3.2; AAV6_3.1. Cyclo-CQVTRM possesses the following motifs: POL_HYD_POL-motif; POL_POL_HYD-motif; POS_HYD_POL-motif.) | fold improvements in biological titer | fold improvements in physical titer |
| CRRHYA: engineered cyclic peptide, SEQ ID NO: 230 | fold improvements in biological titer | – |
| CSDPSA: engineered cyclic peptide, SEQ ID NO: 56 (cyclic; Cyclic peptide that was found to enhance AAV viral titer; We observed log10 enrichment score of 3.653, mean of 76 experimental replicates. We observed excellent mean log10 enrichment scores for this cyclic peptide across multiple AAV serotypes: AAV1_3.5; AAV2_4.0; AAV5_3.0; AAV6_3.4. Cyclo-CSDPSA possesses the following motifs: POL_HYD_POL-motif; NEG_HYD_POL-motif; POL_NEG_HYD-motif; POL_POL_NEG-m) | fold improvements in biological titer | fold improvements in physical titer |
| CSESCP: engineered cyclic peptide, SEQ ID NO: 57 (cyclic; Cyclic peptide that was found to enhance AAV viral titer) | fold improvements in biological titer | fold improvements in physical titer |
| CSVPY: engineered cyclic peptide, SEQ ID NO: 58 (cyclic; Cyclic peptide that was found to enhance AAV viral titer) | fold improvements in biological titer | – |
| CTCKK: engineered cyclic peptide, SEQ ID NO: 59 (cyclic; Cyclic peptide that was found to enhance AAV viral titer) | – | fold improvements in physical titer |
| CYPLH: engineered cyclic peptide, SEQ ID NO: 60 (cyclic; Cyclic peptide that was found to enhance AAV viral titer) | fold improvements in biological titer | fold improvements in physical titer |
| CYSPF: engineered cyclic peptide, SEQ ID NO: 61 (cyclic; Cyclic peptide that was found to enhance AAV viral titer) | fold improvements in biological titer | – |
| CYVTTD: engineered cyclic peptide, SEQ ID NO: 62 (cyclic; Cyclic peptide that was found to enhance AAV viral titer; We observed log10 enrichment score of 3.986, mean of 70 experimental replicates. We observed excellent mean log10 enrichment scores for this cyclic peptide across multiple AAV serotypes: AAV1_4.2; AAV2_4.1; AAV5_3.6; AAV6_3.9. Cyclo-CYVTTD possesses the following motifs: ARO_HYD_POL-motif; POL_POL_NEG-motif; NEG_POL_ARO-motif.) | fold improvements in biological titer | fold improvements in physical titer |
